According to patent US12559474B2, “Triazine derivatives having virus replication inhibitory activity and pharmaceutical composition comprising the same” (priority 2021, dated 2026):
Read-outs that look alike come from different tables or passages of the source.

Columns and labels:
[1] = test system: SARS-CoV-2; assay: microbe, parasite or virus in culture; assay type: cell-based; conditions: Severe acute respiratory syndrome coronavirus 2, VeroE6/TMPRSS2, 72 h, 50% SARS-CoV-2 infected cell death inhibitory concentration, VeroE6/TMPRSS2 cells, 3 days culture
[2] = target: SARS-CoV-2 3CL protease (Severe acute respiratory syndrome coronavirus 2, UniProt P0DTD1); assay: biochemical; conditions: 50% SARS-CoV-2 3CL protease inhibitory concentration, read-out: IC50

Structure (SMILES) | EC50 ([1]; class symbols) | IC50 ([2]; given as class symbols) | EC50 ([1]; CellTiter-Glo 2.0) | IC50 ([2]; RapidFire MS)
COC(=O)Nc1nc2cc(Cl)c(Nc3nc(=O)n(Cc4ncn(C)n4)c(=O)n3Cc3cc(Cl)c(F)cn3)cc2s1 [II-0080] | 1 to 10 µM | < 0.1 µM | – | –
Cc1cncc(-n2c(=O)nc(N(C)c3cc4cn(C)nc4cc3Cl)n(Cc3cc(F)c(F)c(F)c3)c2=O)c1 [II-0483] | – | – | 20.9 µM | 1.8 µM
O=C1CN=CC=C1Cn1c(=O)nc(Nc2cc3c(cc2Cl)OCCC3)n(Cc2cc(F)c(F)cc2F)c1=O [II-0047] | < 1 µM | < 0.1 µM | – | –
N#Cc1cc(Cn2c(Nc3ccc4c(c3)CCO4)nc(=O)n(-c3cncc(C(F)F)c3)c2=O)ccc1F [Compound I-0349] | 1 to 10 µM | < 0.1 µM | – | –
Cc1nc2cc(C)c(Nc3nc(=O)n(-c4cncc5ccccc45)c(=O)n3Cc3ccc(F)c(C#N)c3)cc2o1 [II-0192] | – | – | 0.454 µM | 0.037 µM
O=c1nc(Nc2cc3cn(CCO)nc3cc2Cl)n(Cc2cc(Cl)c(F)cc2F)c(=O)n1Cc1ncccn1 [II-0238] | 1 to 10 µM | < 0.1 µM | – | –
Cn1cnc(Cn2c(=O)nc(Nc3cc4oc(N)nc4cc3Cl)n(Cc3cc(Cl)c(F)cc3F)c2=O)n1 [II-0056] | 1 to 10 µM | < 0.1 µM | – | –
Cc1ccc(C#N)cc1Cn1c(Nc2cc3cn(C)nc3cc2F)nc(=O)n(-c2cncc(Cl)c2)c1=O [II-0097] | < 1 µM | < 0.1 µM | – | –
Cn1cc2cc(Nc3nc(=O)n(CC(=O)NC4CCCCC4)c(=O)n3Cc3cc(F)c(F)c(F)c3)c(Cl)cc2n1 [II-0330] | – | – | 42.2 µM | 3.6 µM
CS(=O)(=O)c1ccc(Nc2nc(=O)n(Cc3ccc[nH]c3=O)c(=O)n2Cc2cc(F)c(F)c(F)c2)cc1 [Compound I-0033] | < 1 µM | 1 to 10 µM | – | 5.6 µM
COc1ccc(Nc2nc(=O)n(-c3cncc(C)c3)c(=O)n2Cc2ccc(F)c(C#N)c2)c(C)c1 [II-0162] | < 1 µM | < 0.1 µM | – | –
Cc1cncc(-n2c(=O)nc(Nc3ccc4c(c3)CCO4)n(Cc3cc(F)c(F)c(F)c3)c2=O)c1 [II-0203] | < 1 µM | < 0.1 µM | – | –
COc1ccc(Nc2nc(=O)n(-c3cncc(C)c3)c(=O)n2Cc2ccc(F)c(C#N)c2)cc1 [II-0182] | < 1 µM | < 0.1 µM | – | –
Cn1cnc(Cn2c(=O)nc(Nc3cc4cn(C)nc4cc3Cl)n(Cc3cc(F)c(F)c(F)c3)c2=O)c1 [Compound I-0426] | – | – | 1.03 µM | 0.0063 µM
Cc1cncc(-n2c(=O)nc(Nc3cc4cn(CCO)nc4cc3Cl)n(Cc3cc(F)c(F)cc3F)c2=O)c1 [II-0337] | < 1 µM | < 0.1 µM | – | –
Cc1cncc(-n2c(=O)nc(Nc3cc4cn(C)nc4cc3Cl)n(Cc3cc(F)c(F)c(Cl)c3)c2=O)c1 [II-0119] | – | – | 0.183 µM | 0.0089 µM
Cn1cnc(Cn2c(=O)nc(Nc3cc4cn(CC(F)F)nc4cc3Cl)n(Cc3cc(F)c(F)c(F)c3)c2=O)n1 [Compound I-0433] | < 1 µM | < 0.1 µM | 0.72 µM | 0.01 µM
O=c1nc(Nc2cc3cn(CCN4CCOCC4)nc3cc2Cl)n(Cc2cc(F)c(F)c(F)c2)c(=O)n1-c1cncc2ccccc12 [Compound I-0401] | 1 to 10 µM | < 0.1 µM | – | –
C#Cc1cncc(-n2c(=O)nc(Nc3ccc(OC)cc3)n(Cc3cc(F)c(F)c(F)c3)c2=O)c1 [II-0604] | – | – | 9.76 µM | 0.47 µM
Cc1cncc(-n2c(=O)nc(Nc3cc4cn(C)nc4cc3Cl)n(Cc3cc(Cl)c(F)c(Cl)c3)c2=O)c1 [II-0588] | < 1 µM | < 0.1 µM | – | –
Cc1cncc(-n2c(=O)nc(Nc3cc4cn(C)nc4cc3Cl)n(Cc3cc(F)cc(C#N)c3)c2=O)c1 [II-0161] | < 1 µM | < 0.1 µM | – | –
Cn1cnc(Cn2c(=O)nc(Nc3cc4cn(C)nc4cc3Cl)n(Cc3cc(F)cc(F)c3F)c2=O)n1 [II-0189] | 1 to 10 µM | < 0.1 µM | – | –
Cc1cncc(-n2c(=O)nc(Nc3cc4oc(C)nc4cc3F)n(Cc3ccc(F)c(C#N)c3)c2=O)c1 [II-0107] | 1 to 10 µM | < 0.1 µM | – | –
Cn1cnc(Cn2c(=O)nc(Nc3cc4cn(CCO)nc4cc3Cl)n(Cc3cc(F)c(F)c(Cl)c3)c2=O)n1 [II-0307] | 1 to 10 µM | < 0.1 µM | – | –
